In patent US10398751B2, “Pharmaceutical compositions of water soluble peptides with poor solubility in isotonic conditions and methods for their use” (STRONGBRIDGE IRELAND LIMITED, priority 2016, dated 2019):
Converted amounts (≈) assume the structure as drawn. Counter-ions that a name gives are not always drawn. Each block holds one compound with its values, some of them ahead of it.

Legend:
[1] = Solubility in Tris-HCl and lysine solutions; format: physicochemical
Experimental: In light of the solubility of veldoreotide acetate in Tris-HCl, the solubility of veldoreotide acetate was tested in solutions containing L-lysine and L-lysine HCl.

[2] = system: human Carcinoid cell line; test: Chromogranin A release; format: cell-based
in vivo = test: in vivo; set-up: species or system rats; conditions: rat, sc
Experimental: The lactic acid vehicle for use in the formulations as shown in Table 7 below was prepared as follows: Formulations for injection into rats were prepared as summarized in Table 8. Subject rats (mean weight of about 370 grams per subject) were injected according to the above dosing schedule in groups of 5 rats per treatment. Baseline tail bleed samples were drawn from the rats at 2 days prior to dosing. […] Blood samples were approximately 300 uL of whole blood collected in commercial K3 EDTA-coated tubes. Subject rats were also observed for injection site reactions for up to 5-7 days post-dosing. Blood samples were kept on ice following collection until the time of centrifugation. Blood samples were processed within 60 minutes from blood collection. Samples were centrifuged at 3000 G for 15 minutes in a refrigerated centrifuge (5° C.). Plasma was withdrawn from the tubes after centrifugation and placed into new, appropriately labeled tubes and stored at −65° C. to −80° C. until transfer. […] Veldoreotide acetate standard was serially diluted with methanol:water (1:9) and added to blank rat plasma to generate calibration standards and QC samples. The calibration samples were stored at −70° C. Frozen samples were then thawed to room temperature. Blank plasma and reagent blank (water) were also prepared. For each 100 uL aliquot of sample, calibrator or QC sample, 25 uL (˜100 ng/mL) of internal standard (octreotide acetate) in methanol:water (1:9) and 600 uL of acetonitrile:formic acid (99:1) were added and the samples vortex mixed for 30 seconds. Samples were diluted by mixing 20 uL of plasma sample with 180 uL of blank plasma and aliquotted at 100 uL prior to addition of the internal standard and acetonitrile:formic acid solutions. Samples were then centrifuged for 10 minutes at 14,000 rpm at 8° C. 450 uL of the upper (organic) layer was then transferred to evaporation tubes and evaporated under nitrogen at about 50° C. Samples were then reconstituted in 200 uL of reconstitution solution (water:acetonitrile:formic acid at 70:30:0.2). Samples were centrifuged for 10 minutes at 4000 rpm at 8° C. 160 uL of each sample was withdrawn and placed in an autosampler vial with conic glass insert and analyzed via LC-MS/MS. Veldoreotide acetate plasma concentrations were then plotted and analyzed using standard pharmacokinetic techniques.

[3] = Solubility and surface activity in PBS under physiological conditions (37° C.); format: physicochemical; conditions: COR005 10 mg/ml; for Surface tension (dyne/cm) / Effect of surface tension (% of baseline): PBS pH 7.4, 37° C.; for solubility: PBS, pH 7.4, PBS pH 7.4, 37° C.
Experimental: Table 6 summarizes the effects of additives on the surface activity profile of COR005 acetate under physiological conditions (37° C.) that emulate the release of COR005 at the injection site.

[4] = Pharmacokinetics of IR formulations in minipigs; format: in vivo; conditions: minipig, plasma, sc; for AUC(0-t) / Tmax: minipigs; for bioavailability: read-out: Minipigs absolute BA (F %)
[5] = 0.1 mg/kg, IR, SC, 0.1 mg/Kg, DEX:PEP 5:1 saline
[6] = 0.1 mg/kg, IR, SC 0.1 mg/Kg, DEX:PEP 5:1 saline
[7] = 0.1 mg/kg, IR, SC 0.1 mg/Kg, Lactic acid buffer
[8] = 0.4 mg/kg, IR, SC 0.4 mg/Kg, DEX:PEP 5:1 saline
[9] = 0.4 mg/kg, IR, SC 0.4 mg/Kg, HPB:PEP 15:1 saline
[10] = 0.4 mg/kg, IR, SC 0.4 mg/Kg, Lactic acid buffer
[11] = 0.4 mg/kg, IR, SC, 0.4 mg/Kg, DEX:PEP 5:1 saline
[12] = 0.4 mg/kg, IR, SC, 0.4 mg/Kg, HPB:PEP 15:1 saline

solubility ([1]; 20 mM Tris-HCl): highly soluble
solubility ([1]; Tris-HCl increased to 137 mM or 117 mM NaCl added): significantly reduced
effect on solubility of veldoreotide acetate ([1]; addition of L-lysine HCl, isotonic media): substantially improved
effect on solubility of veldoreotide acetate ([1]; solution containing L-lysine): did not substantially improve
Cmax (in vivo; Sprague-Dawley, 3 mg/kg, Rats Cmax (ng/ml)): 544 ng/mL
bioavailability (in vivo; Sprague-Dawley, 3 mg/kg, pH 4, Rats BA (F %)): 83%
Cmax (in vivo; Sprague-Dawley, 3 mg/kg, pH 4, Rats Cmax (ng/ml)): 345 ng/mL
bioavailability (in vivo; Sprague-Dawley, […], Rats BA (F %)): 82%
bioavailability (in vivo; Sprague-Dawley, pH 4, Rats BA (F %)): 70%
Cmax (in vivo; Sprague-Dawley, pH 4, Rats Cmax (ng/ml)): 350 ng/mL
Surface tension (dyne/cm) ([3]; HPB:PEP 1:4): 39 dyne/cm
Surface tension (dyne/cm) ([3]; no additive): 34 dyne/cm
Cmax [4, 5]: 53 ng/mL
AUC(0-t) [4, 6]: 53 ng·h/mL
Tmax [4, 6]: 60 min
AUC(0-t) [4, 7]: 26 ng·h/mL
Tmax [4, 7]: 30 min
Cmax ([4]; 0.1 mg/kg, pH 4, IR, Lactic acid buffer pH 4): 29 ng/mL
AUC(0-t) [4, 8]: 205 ng·h/mL
Tmax [4, 8]: 30 min
AUC(0-t) [4, 9]: 198 ng·h/mL
Tmax [4, 9]: 15 min
AUC(0-t) [4, 10]: 161 ng·h/mL
Tmax [4, 10]: 60 min
Structure (SMILES): C[C@@H](O)[C@@H]1NC(=O)[C@H](CCCCN)NC(=O)[C@@H](Cc2c[nH]c3ccccc23)NC(=O)[C@H](Cc2c[nH]c3ccccc23)NC(=O)[C@H](Cc2ccccc2)NC(=O)CCCNC(=O)CCCN(CC(N)=O)C(=O)[C@H](Cc2ccccc2)NC1=O [Veldoreotide Acetate, Cyclo(-γ-aminobutyryl-L-phenylalanyl-L-tryptophanyl-D-tryptophanyl-L-lysyl-L-threonyl-L-phenylalanyl-N-carbamoylmethyl-γ-aminobutyryl), acetate salt]
Chromogranin A release [2]: inhibits

Cmax (in vivo; HSD:Sprague Dawley SD, 3 mg/kg, Rats Cmax (ng/ml)): 544 ng/mL
Cmax (in vivo; HSD:Sprague Dawley SD, 3 mg/kg, pH 4, Rats Cmax (ng/ml)): 345 ng/mL
Surface tension (dyne/cm) ([3]; Dextrose 5 wt %): 49 dyne/cm
Effect of surface tension (% of baseline) ([3]; Dextrose 5 wt %, at 48 h): (−18% at 48 h)
Effect of surface tension (% of baseline) ([3]; Dextrose 5 wt %, baseline PBS/5% DEX): −14%
Surface tension (dyne/cm) ([3]; HPB:PEP 1:2): 45 dyne/cm
Effect of surface tension (% of baseline) ([3]; HPB:PEP 1:2, baseline PBS): −6%
Effect of surface tension (% of baseline) ([3]; HPB:PEP 1:4, baseline PBS): −19%
Surface tension (dyne/cm) ([3]; HPB:PEP 10:1): 50 dyne/cm
Effect of surface tension (% of baseline) ([3]; HPB:PEP 10:1, baseline PBS): +4%
Effect of surface tension (% of baseline) ([3]; no additive, baseline PBS): −29%
solubility ([3]; Dextrose 5 wt %): 3300 µg/mL (≈ 2.94 mM)
solubility ([3]; HPB:PEP 1:2): 5000 µg/mL (≈ 4.45 mM)
solubility ([3]; HPB:PEP 1:4): 3900 µg/mL (≈ 3.47 mM)
solubility ([3]; HPB:PEP 10:1): 8900 µg/mL (≈ 7.92 mM)
solubility ([3]; no additive): 3600 µg/mL (≈ 3.2 mM)
bioavailability [4, 5]: 91%
bioavailability ([4]; 0.1 mg/kg, pH 4, IR, SC, 0.1 mg/Kg, Lactic acid buffer pH 4): 45%
Cmax [4, 11]: 238 ng/mL
bioavailability [4, 11]: 88.4%
Cmax [4, 12]: 255 ng/mL
bioavailability [4, 12]: 85.3%
bioavailability ([4]; 0.4 mg/kg, pH 4, IR, SC, 0.4 mg/Kg, Lactic acid buffer pH 4): 69%
Cmax ([4]; 0.4 mg/kg, pH 4, IR, Lactic acid buffer pH 4): 108 ng/mL
Structure (SMILES): C[C@@H](O)[C@@H]1NC(=O)[C@H](CCCCN)NC(=O)[C@@H](Cc2c[nH]c3ccccc23)NC(=O)[C@H](Cc2c[nH]c3ccccc23)NC(=O)[C@H](Cc2ccccc2)NC(=O)CCCNC(=O)CCCN(CC(N)=O)C(=O)[C@H](Cc2ccccc2)NC1=O [Veldoreotide, cyclo(-γ-aminobutyryl-L-phenylalanyl-L-tryptophanyl-D-tryptophanyl-L-lysyl-L-threonyl-L-phenylalanyl-N-carbamoylmethyl-γ-aminobutyryl)]
